In brackets after ≈: the same amount, converted by molar mass.
Legend:
Plasmodium falciparum [1] = assay: In vitro antimalarial activity against chloroquine-resistant Plasmodium falciparum K1; assay type: functional, organism-based
Plasmodium falciparum [2] = assay: In vitro antimalarial activity against chloroquine-sensitive Plasmodium falciparum 3D7; assay type: functional, organism-based

Row | Compound | IC50 (Plasmodium falciparum [1]) [µg/mL] | IC50 (Plasmodium falciparum [2]) [µg/mL]
1 | C[C@@H]1CC[C@H]2[C@@]3(CO[C@@H]4O[C@]5(C)CC[C@@H]1[C@]42OO5)CO3 | 0.01 (≈ 0.0354 µM) | 0.03 (≈ 0.106 µM)
2 | C[C@@H]1CC[C@H]2[C@@H](C)C(=O)O[C@@H]3O[C@@]4(C)CC[C@@H]1[C@]32OO4 [ARTEMISININ] | 0.002 (≈ 0.00708 µM) | 0.01 (≈ 0.0354 µM)
3 | CCO[C@H]1O[C@@H]2O[C@@]3(C)CC[C@H]4[C@H](C)CC[C@@H]([C@H]1C)[C@@]24OO3 [ARTEMOTIL] | < 0.0001 | < 0.0001
4 | C=C1CO[C@@H]2O[C@]3(C)CC[C@H]4[C@H](C)CC[C@@H]1[C@@]24OO3 | 0.02 (≈ 0.0751 µM) | 0.02 (≈ 0.0751 µM)
5 | C[C@@H]1CC[C@H]2[C@@H](COC[C@H]3CO[C@@H]4O[C@]5(C)CC[C@H]6[C@H](C)CC[C@@H]3[C@@]46OO5)CO[C@@H]3O[C@@]4(C)CC[C@@H]1[C@]32OO4 | 0.02 (≈ 0.0363 µM) | 0.04 (≈ 0.0726 µM)
6 | C[C@@H]1CC[C@H]2[C@H](C=O)CO[C@@H]3O[C@]4(C)CC[C@@H]1[C@]32OO4 | 0.46 (≈ 1.63 µM) | 2.02 (≈ 7.15 µM)
7 | C[C@H]1[C@H](OC(=O)CCC(=O)O)O[C@@H]2O[C@@]3(C)CC[C@H]4[C@H](C)CC[C@@H]1[C@@]24OO3 [ARTESUNATE] | 0.0006 (≈ 0.00156 µM) | 0.0002 (≈ 0.00052 µM)
8 | C[C@@H]1CC[C@H]2C(=O)CO[C@@H]3O[C@]4(C)CC[C@@H]1[C@]32OO4 | 0.006 (≈ 0.0224 µM) | 0.02 (≈ 0.0745 µM)
9 | Cc1ccc(S(=O)(=O)OC[C@H]2CO[C@@H]3O[C@]4(C)CC[C@H]5[C@H](C)CC[C@@H]2[C@@]35OO4)cc1 | 0.05 (≈ 0.114 µM) | 0.3 (≈ 0.684 µM)
10 | C[C@@H]1CC[C@H]2[C@@H](CBr)CO[C@@H]3O[C@]4(C)CC[C@@H]1[C@]32OO4 | 0.003 (≈ 0.00864 µM) | 0.01 (≈ 0.0288 µM)
11 | C[C@@H]1CC[C@H]2[C@@H](C(=O)O)CO[C@@H]3O[C@]4(C)CC[C@@H]1[C@]32OO4 | 0.65 (≈ 2.18 µM) | 1.09 (≈ 3.65 µM)
12 | C[C@@H]1CC[C@H]2[C@@H](COS(C)(=O)=O)CO[C@@H]3O[C@]4(C)CC[C@@H]1[C@]32OO4 | 0.06 (≈ 0.166 µM) | 0.09 (≈ 0.248 µM)
13 | C[C@@H]1CC[C@H]2[C@@H](CO)CO[C@@H]3O[C@]4(C)CC[C@@H]1[C@]32OO4 | 0.0006 (≈ 0.00211 µM) | < 0.0001
14 | C[C@@H]1CC[C@H]2[C@H](CO)CO[C@@H]3O[C@]4(C)CC[C@@H]1[C@]32OO4 | 0.05 (≈ 0.176 µM) | 0.06 (≈ 0.211 µM)
15 | C[C@@H]1CC[C@H]2[C@@H](C=O)CO[C@@H]3O[C@]4(C)CC[C@@H]1[C@]32OO4 | 3.01 (≈ 10.7 µM) | 0.12 (≈ 0.425 µM)
16 | C[C@@H]1CC[C@H]2[C@H](CBr)CO[C@@H]3O[C@]4(C)CC[C@@H]1[C@]32OO4 | < 0.0001 | 0.0002 (≈ 0.000576 µM)
17 | C[C@@H]1CC[C@@H]2[C@]34OO[C@@](C)(CC[C@@H]13)O[C@H]4OC[C@]2(C)O | 0.05 (≈ 0.176 µM) | 0.07 (≈ 0.246 µM)
